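How tested: cells in 96-well plates exposed to compound for 48 hours at five concentrations. GI50 marks 50% less growth.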 Calls of active or inactive are those of the source. Cut-off read from the data, not from the text of the source: active = GI50 up to about 1.1 µM and inactive = higher.
Experiments:
Assay in all cases: growth of human tumour cells (NCI), 48 h
RPMI-8226 = test system: RPMI-8226
SNB-75 = test system: SNB-75
SR = test system: SR
786-0 = test system: 786-0
A549 = test system: A549
ACHN = test system: ACHN
CAKI-1 = test system: CAKI-1
CCRF-CEM = test system: CCRF-CEM
COLO 205 = test system: COLO 205
DU-145 = test system: DU-145
EKVX = test system: EKVX
HCC 2998 = test system: HCC 2998
HCT-116 = test system: HCT-116
HCT-15 = test system: HCT-15
HL-60 = test system: HL-60
HOP-62 = test system: HOP-62
HOP-92 = test system: HOP-92
HT-29 = test system: HT-29
Hs-578T = test system: Hs-578T
IGROV-1 = test system: IGROV-1
K562 = test system: K562
KM12 = test system: KM12
LOX IMVI = test system: LOX IMVI
M14 = test system: M14
MCF7 = test system: MCF7
MDA-MB-231 = test system: MDA-MB-231
MDA-MB-435 = test system: MDA-MB-435
MDA-N = test system: MDA-N
MOLT-4 = test system: MOLT-4
Malme-3M = test system: Malme-3M
NCI-H226 = test system: NCI-H226
NCI-H23 = test system: NCI-H23
NCI-H460 = test system: NCI-H460
NCI/ADR-RES = test system: NCI/ADR-RES
OVCAR-3 = test system: OVCAR-3
OVCAR-4 = test system: OVCAR-4
OVCAR-5 = test system: OVCAR-5
OVCAR-8 = test system: OVCAR-8
PC-3 = test system: PC-3
RXF 393 = test system: RXF 393
SF-268 = test system: SF-268
SF-295 = test system: SF-295
SF-539 = test system: SF-539
SK-MEL-28 = test system: SK-MEL-28
SK-MEL-2 = test system: SK-MEL-2
SK-MEL-5 = test system: SK-MEL-5
SK-OV-3 = test system: SK-OV-3
SN12C = test system: SN12C
SNB-19 = test system: SNB-19
SW-620 = test system: SW-620
T47D = test system: T47D
TK-10 = test system: TK-10
U-251 = test system: U-251
UACC-257 = test system: UACC-257
UACC-62 = test system: UACC-62
UO-31 = test system: UO-31

Measured: GI50

CCCCCCCCCCCCCCCCCCOC[C@H](COP(=O)(O)O[C@H]1[C@H](O)[C@@H](O)[C@H](O)C[C@H]1O)OC
inactive: RPMI-8226 11.8 µM | SNB-75 13 µM | SR 12.1 µM

CCOC(=O)c1cnc2oc(/C=N/N3CC(CN4CCOCC4)OC3=O)cc2c1O (centres undefined)
inactive: 786-0 > 100 µM | A549 > 100 µM | ACHN > 100 µM | CAKI-1 > 100 µM | CCRF-CEM > 100 µM | COLO 205 > 100 µM | DU-145 > 100 µM | EKVX > 100 µM | HCC 2998 > 100 µM | HCT-116 > 100 µM | HL-60 > 100 µM | HOP-62 > 100 µM | HOP-92 > 100 µM | HT-29 > 100 µM | Hs-578T > 100 µM | IGROV-1 > 100 µM | K562 > 100 µM | KM12 > 100 µM | LOX IMVI > 100 µM | M14 > 100 µM | MCF7 > 100 µM | MDA-MB-231 > 100 µM | MDA-MB-435 > 100 µM | MDA-N > 100 µM | MOLT-4 > 100 µM | Malme-3M > 100 µM | NCI-H226 > 100 µM | NCI-H23 > 100 µM | NCI-H460 > 100 µM | NCI/ADR-RES > 100 µM | OVCAR-3 > 100 µM | OVCAR-4 > 100 µM | OVCAR-5 > 100 µM | OVCAR-8 > 100 µM | PC-3 > 100 µM | RPMI-8226 > 100 µM | RXF 393 > 100 µM | SF-268 > 100 µM | SF-295 > 100 µM | SF-539 > 100 µM | SK-MEL-28 > 100 µM | SK-MEL-2 > 100 µM | SK-MEL-5 > 100 µM | SK-OV-3 > 100 µM | SN12C > 100 µM | SNB-19 > 100 µM | SNB-75 > 100 µM | SR > 100 µM | SW-620 > 100 µM | T47D > 100 µM | TK-10 > 100 µM | U-251 > 100 µM | UACC-257 > 100 µM | UACC-62 > 100 µM | UO-31 > 100 µM
> 100 µM: HCT-15
